Assay results: US9289412B2, “Role of limonoid compounds as neuroprotective agents” (The Johns Hopkins University, priority 2006, dated 2016)
Like-named read-outs stand apart in the source and are kept apart here.

Experiments:
[1] = system: rat mixed hippocampal cultures; experiment: Titration of 3-NP for neurotoxic effects, MTT viability; type: cell-based; conditions: 3 mM 3-NP, 18 hours
Protocol: FIG. 3 is a bar graph showing the effect of a series of 3-nitropropionic acid (3-NP) concentrations (0.5-10 mM) on survival of mixed hippocampal cell cultures in a [3-(4,5-dimethylthiazol-2-yl)-2,5-diphenyl tetrazolium bromide] (MTT) viability assay. Absorbance at 595 nm (corresponding to the absorbance of the reduced MTT formazan product) is directly proportional to cell viability.

[2] = system: rat mixed hippocampal cultures; experiment: 3-NP neurotoxicity assay, MTT viability, rat mixed hippocampal cultures; type: cell-based; conditions: for inhibition at 10 µM: Rattus norvegicus; for protection against 3-NP (FIG. 5): approximate values; for protection from oxidative damage elicited by 3-NP, in words (FIG. 4A): GPI 1046 1 μM, Resveratrol 25 μM
Protocol: For example, a cell viability assay can be used in a preliminary screen on a large series of compounds each of which is tested at a fixed concentration. In some embodiments, mixed hippocampal cell cultures are prepared as described in, e.g., Haughey et al. (1999), J Neurochem, 73(4):1363-1374, and Haughey et al (2004), J Neurosci, 24(1):257-268. Subsequently, the cultures are pretreated for one hour in the presence of a candidate neuroprotective agent and then incubated with a cytotoxic agent for about 18 hours. Examples of cytotoxic agents include, but are not limited to, oxidative stressors (e.g., 3-nitropropionic acid (3-NP) or H2O2), excitatory amino acids (e.g., kainate), or neurotoxic proteins (e.g., Hiv Tat, or Aβ peptides). […] The level of protection (“percent protection”) provided by the test compound at a given test concentration in vitro can be expressed as: […]
A variety of methods for determining cell viability may be used. In some embodiments, cell viability is assessed based on the “MTT” assay method described in Mosmann (1983), J Immunol Methods, 65(1-2):55-63, or a variant thereof. This assay is based on the ability of a mitochondrial dehydrogenase enzyme from viable cells to cleave the tetrazolium rings of the pale yellow MTT and form dark blue formazan crystals, which are trapped in cells and readily quantified by ELISA spectrophotometry.
(§1) We sought to evaluate the protective efficacy of a number of modified terpenoid compounds against the against many different neurotoxins, ranging from the chemotoxic 6-OHDA, NMDA, 3-nitropropionic acid (3-NP), and viral proteins such as Tat and gp120. Thus, we established an in vitro neuroprotection assay using rat mixed hippocampal cultures, in which we evaluated the protective efficacy of neuroprotective compounds disclosed herein. The oxidative stressor 3-NP was used to elicit toxicity in the rat hippocampal cultures to mimic the oxidative damage, reactive oxygen species production and ensuing neurodegeneration resulting from HIV infection. Another measure of neurotoxicity which results from HIV infection was evaluated by exposure of the hippocampal cultures to HIV-1 Tat (Li et al (2005), Neurotox Res, 8(1-2): 119-134).
(§2) Rat mixed hippocamal neuronal cultures were generated from freshly dissected rat hippocampi (embryonic day 18) in neurobasal media containing 5% fetal bovine serum and 2% B27 supplement. The cells were plated into 96 well plates at a density of 4×10^5 cells/mL and routinely used on days 11-14 following culturing. Cell viability was assessed with MTT [3-(4,5-dimethylthiazol-2-yl)-2,5-diphenyltetrazolium bromide] assay. The MTT assay is based on the ability of a mitochondrial dehydrogenase enzyme from viable cells to cleave the tetrazolium rings of the pale yellow MTT and form dark blue formazan crystals. See Mosmann (1983), J Immunol Methods, 65(1-2):55-63. These crystals are largely impermeable to cell membranes, and thus accumulate within healthy cells. The resultant formazan precipitates are solubilized with DMSO and read on a multiwell scanning spectrophotometer (ELISA reader). The number of surviving cells is directly proportional to the level of the formazan product created.
Mixed hippocampal cultures were incubated with 3-NP (0.5-10 mM) for 18 hours and then assessed for viability using an MTT assay.
(§3) Cultures were preincubated with GPI 1046 or Resveratrol for one hour prior to an 18 hour exposure to 3 mM 3-NP. […] The same neuroprotective compounds were evaluated for efficacy against HIV-1 Tat protein toxicity using the same 1 hour preincubation protocol.

[3] = system: hippocampal cultures (HIV-1 Tat toxicity); experiment: HIV-1 Tat toxicity assay, MTT viability, mixed hippocampal cultures; type: cell-based, rat; conditions: Tat 500 nM; for protection from HIV-1 Tat toxicity, in words (FIG. 4B): 1 h preincubation, GPI 1046 10 μM, Resveratrol 10 μM
From the text: as §1, §2, §3

[4] = Table 3, 3 mM 3-NP 18 h, 1 h preincubation, test concentration (10 μM), read-out: % Protection vs 3-NP
[5] = Table 2, vs 3 mM 3-NP 18 h, 1 h preincubation, test concentration (10 μM)
[6] = Table 2, vs 3 mM 3-NP 18 h, 1 h preincubation, test concentration (10 μM), read-out: % Protection
[7] = Table 3, 3 mM 3-NP 18 h, 1 h preincubation, test concentration (10 μM)
[8] = 3 mM 3-NP 18 h, 1 h preincubation

## O=C(O)CC[N+](=O)[O-] [Compound 3-NP, 3-nitropropionic acid]
[1]
  cytotoxicity induced: 25-35%

## CC(=O)O[C@@H]1CC2C(C)(C)C(=O)C=C[C@]2(C)C2CC[C@@]3(C)C(=CC(=O)O[C@@H]3c3ccoc3)[C@@]21C (some centres unmarked) [DEOXYGEDUNIN]
[2]; [4]
  inhibition at 10 µM: 23%
[2]; [5]
  % Protection: 23%

## CC(=O)OC1C=C[C@@]2(C)C(C[C@@H](OC(C)=O)[C@@]3(C)C4=CC(=O)O[C@@H](c5ccoc5)[C@]4(C)CCC23)C1(C)C (some centres unmarked) [DEOXYGEDUNOL ACETATE]
[2]; [6]
  inhibition at 10 µM: 54%

## CC(=O)OC1CC2C(C)(C)[C@H](OC(C)=O)C[C@H](OC(C)=O)[C@]2(C)C2CC[C@]3(C)C(=CC(=O)O[C@@H]3c3ccoc3)[C@]12C (some centres unmarked) [DEOXYKHIVORIN]
[2]; [6]
  inhibition at 10 µM: 36%
[2]; [4]
  inhibition at 10 µM: 36%

## COC(=O)[C@@H]1OC(=O)C2OC23[C@@]1(C)CCC1[C@]2(C)C(C[C@@H](O)[C@]13C)C(C)(C)[C@H](OC(C)=O)C[C@@H]2OC(C)=O (some centres unmarked) [DESACETYL (7)KHIVORINIC ACID, METHYL ESTER]
[2]; [5]
  % Protection: 58%

## COC(=O)C[C@H]1C(C)(C)[C@@H](OC(C)=O)[C@@H]2CC3C4CC(=O)O[C@@H](c5ccoc5)[C@]4(C)CCC3[C@@]1(C)C2=O (some centres unmarked) [DIHYDROFISSINOLIDE]
[2]; [4]
  inhibition at 10 µM: 12%

## CC(=O)O[C@@H]1CC2C(C)(C)C3(CC[C@]2(C)C2CC[C@@]4(C)[C@H](c5ccoc5)OC(=O)C5OC54[C@@]21C)SCCS3 (some centres unmarked) [DIHYDROGEDUNIN ETHANEDITHIOKETAL]
[2]; [5]
  % Protection: 19%

## CC(=O)O[C@@H]1CC2C(C)(C)C(=O)CC[C@]2(C)C2CC[C@@]3(C)[C@@H](c4ccoc4)OC(=O)C4OC43[C@@]21C (some centres unmarked) [DIHYDROGEDUNIN]
[2]; [6]
  inhibition at 10 µM: 28%

## CCC(C)C(=O)O[C@@H]1C[C@@]2(C)[C@H](c3ccoc3)OC(=O)CC23OC2(C)OC34[C@H](OC(=O)C(C)C)[C@@]3(O)[C@@H](OC(=O)C5(C)OC5C)[C@@]5(C)C[C@]3(O)[C@@](C)([C@H]5CC(=O)OC)C14O2 (some centres unmarked) [ENTANDROPHRAGMIN]
[2]; [7]
  % Protection vs 3-NP: 18%

## CC(=O)O[C@@H]1CC2C(C)(C)C(=O)C3OC3[C@]2(C)C2CC[C@@]3(C)[C@H](c4ccoc4)OC(=O)C4OC43[C@@]21C (some centres unmarked) [EPOXYGEDUNIN]
[2]; [5]
  % Protection: 69%

## COC(=O)C[C@H]1C(C)(C)[C@@H](OC(C)=O)[C@@H]2CC3=C4CC(=O)O[C@@H](c5ccoc5)[C@]4(C)CC[C@@H]3[C@@]1(C)C2=O [FISSINOLIDE]
[2]; [4]
  inhibition at 10 µM: 28%

## CC(=O)O[C@@H]1CC2C(C)(C)C(=O)C=C[C@]2(C)C2CC[C@@]3(C)[C@H](c4ccoc4)OC(=O)[C@H]4O[C@]43[C@@]21C (some centres unmarked) [GEDUNIN]
[2]; 3 mM 3-NP
  protection against 3-NP (FIG. 5): about 50%
[2]; [6]
  inhibition at 10 µM: 40%
[3]; 1-10 μM compound
  neuroprotection from HIV-1 Tat toxicity, in words: nearly complete neuroprotection
[3]; range of concentrations up to 10 μM
  dose dependence of protection from HIV-1 Tat toxicity (FIG. 7): dose dependently protected

## CC(=O)O[C@@H]1CC2C(C)(C)[C@H](O)C=C[C@]2(C)C2CC[C@@]3(C)[C@H](c4ccoc4)OC(=O)C4OC43[C@@]21C (some centres unmarked) [GEDUNOL]
[2]; [5]
  % Protection: 45%

## CCC(C)(C)C(=O)C(=O)N1CCC[C@H]1C(=O)OCCCc1cccnc1 [GPI 1046, reference compound]
[2]; [8]
  protection from oxidative damage elicited by 3-NP, in words (FIG. 4A): significantly protected
[3]
  protection from HIV-1 Tat toxicity, in words (FIG. 4B): protected hippocampal neurons from Tat toxicity

## CC(=O)O[C@@H]1CC2C(C)(C)C=CC(=O)[C@]2(C)C2CC[C@@]3(C)[C@H](c4ccoc4)OC(=O)C4OC43[C@@]21C (some centres unmarked) [ISOGEDUNIN]
[2]; [6]
  inhibition at 10 µM: 50%

## CC(=O)OC1C[C@H](OC(C)=O)[C@@]2(C)C(C[C@@H](OC(C)=O)[C@]3(C)C2CC[C@@]2(C)[C@H](c4ccoc4)OC(=O)[C@H]4O[C@]423)C1(C)C (some centres unmarked) [KHIVORIN]
[2]; 3 mM 3-NP, 10 μM of Khivorin
  protection against 3-NP, in words (FIG. 5A): nearly complete protection
[2]; [6]
  inhibition at 10 µM: 70%

## COC(=O)C[C@H]1C(C)(C)C(=O)[C@@H]2CC3=C4CC(=O)O[C@@H](c5ccoc5)[C@]4(C)CC[C@@H]3[C@@]1(C)C2=O [MEXICANOLIDE]
[2]; [4]
  inhibition at 10 µM: 9%

## C=C1[C@@H]([C@@]2(C)[C@@H](OC(C)=O)CC(=O)O[C@](C)(COC(C)=O)[C@@H]2C(=O)OC)[C@@H](OC=O)[C@H](OC(=O)[C@H](O)[C@H](C)CC)[C@@]2(C)[C@H](c3ccoc3)CC(=O)[C@]12O [PRIEURIANIN]
[2]; 18 h, read-out: % Protection vs 3-NP
  inhibition at 10 µM: 6%

## COC1=C[C@@H](C)[C@@H]2C[C@H]3OC(=O)C[C@H]4C(C)=C(OC)C(=O)[C@H]([C@@]2(C)C1=O)[C@@]34C [QUASSIN]
[2]; [4]
  inhibition at 10 µM: 8%

## Oc1ccc(C=Cc2cc(O)cc(O)c2)cc1 [Resveratrol, reference compound]
[2]; [8]
  protection from oxidative damage elicited by 3-NP, in words (FIG. 4A): significantly protected
[3]
  protection from HIV-1 Tat toxicity, in words (FIG. 4B): protected hippocampal neurons from Tat toxicity

## CCC(C)C(=O)O[C@@H]1C[C@@]2(C)[C@H](c3ccoc3)OC(=O)CC23OC2(C)O[C@]14[C@]1(C)[C@@H](CC(=O)OC)C5(C)CC1(O)[C@](O)(C5OC(=O)C1(C)OC1C)[C@@H](OC(C)=O)[C@]34O2 (some centres unmarked) [UTILIN]
[2]; [4]
  inhibition at 10 µM: 16%

## C=C1C2CC[C@@]3(C)[C@H](c4ccoc4)OC(=O)C[C@]13OC1CC(=O)C(C)(C)C(CC(=O)OC)C12C (some centres unmarked) [[…], METHYL ESTER]
[2]; 3 mM 3-NP
  protection against 3-NP (FIG. 5): about 50%
[2]; [6]
  inhibition at 10 µM: 33%
[2]; [4]
  inhibition at 10 µM: 33%

## C[C@@H]([C@H]1OC(C)(C)[C@@H](O)[C@H]1O)[C@@H]1CC[C@]2(C)C3=CC[C@H]4C(C)(C)C(=O)CC[C@]4(C)[C@H]3CC[C@@]12C [odoratone]
[2]; 3 mM 3-NP
  protection against 3-NP (FIG. 5): 60-70%

## KHAYANTHONE
[2]; [7]
  % Protection vs 3-NP: 36%

## KHAYASIN C
[2]; [7]
  % Protection vs 3-NP: 13%
